Bounds are passed on as bounds.

The target in assay [1] is T1, transfected human CB2 receptors (Homo sapiens, UniProt P34972).
T1 construct: purchased Receptor Biology, Inc
Kind of assay: In-vitro determination of affinity to CB2 receptor (radioligand [3H]-CP55940). Format: binding. The procedure: (§1) I. In-vitro determination of affinity to CB1/CB2-Receptors
(§2) The in-vitro determination of the affinity of the inventive substituted pyrazoline compounds to CB1/CB2-Rezeptors is carried out as described in the publication of Ruth A. Ross, Heather C. Brockie et al., "Agonist-inverse agonist characterization at CB1 and CB2 cannabinoid receptors of L-759633, L759656 and AM630", British Journal of Pharmacology, 126, 665-672, (1999), whereby the transfected human CB1 and CB2 receptors of Receptor Biology, Inc. are used. The radioligand used for both receptors is [^3H]-CP55940. The respective parts of the description is hereby incorporated by reference and forms part of the present disclosure.

Assay [2] concerns cannabinoid receptors. In words: Mouse tetrad model, agonistic effect. It counts as in vivo, Male NMRI mice. The arrangement: key to Agonistic effect D: Sedation: % of sedation = mean score (0–3 scale)/3 × 100. As to conditions: 5 mg/kg i.v. From the text: (§3) Substances with affinity for cannabinoid receptors are known to produce a wide range of pharmacological effects. It is also known that intravenous administration of a substance with affinity for cannabinoid receptors in mice produces analgesia , hypothermia, sedation and catalepsy. Individually, none of these effects can be considered as proof that a tested substance has affinity for cannabinoid-receptors, since all of these effects are common for various classes of centrally active agents. However, substances, which show all of these effects, i.e. substances that are active in this so-called tetrad model are considered to have affinity for the cannabinoid receptors. It has further been shown that cannabinoid receptor antagonists are higly effective in blocking the effects of a cannabinoid agonist in the mouse tetrad model.
(§4) The tetrad model is described, for example, in the publication of A. C. Howlett et al, International Union of Pharmacology XXVII. Classification of Cannabinoid Receptors, Pharmacol Rev 54, 161-202 , 2002 and David R. Compton et al., "In-vivo Characterization of a Specific Cannabinoid Receptor Antagonist (SR141716A) :Inhibition of Tetrahydrocannbinol- induced Responses and Apparent Agonist Activity", J. Pharmacol. Exp. Ther. 277 , 2, 586-594, 1996. The corresponding parts of the description are hereby incorporated by reference.
(§5) Male NMRI mice with a weight of 20-30 g (Harlan, Barcelona, Spain) are used in all of the following experiments.
(§6) Before testing in the behavioral procedures given below, mice are acclimatized to the experimental setting. Pre-Treatment control values are determined for analgesia hot plate latency (in seconds), rectal temperature, sedation and catalepsy.
(§7) In order to determine the agonistic activty of the substance to be tested, the mice are injected intravenously with the substance to be tested or the vehicle alone. 15 minutes after injection, latency in hot plate analgesia is measured.
(§8) Rectal temperature, sedation and catalepsy are measured 20 minutes after injection.
(§9) The hot plate analgesia is determined according to the method described in Woolfe D. et al. "The evaluation of analgesic action of pethidine hydrochloride (Demerol)", J. Pharmacol. Exp. Ther. 80, 300-307,1944. The respective description is hereby incorporated by reference and forms part of the present disclosure.
(§10) The mice are placed on a hot plate (Harvard Analgesimeter) at 55 ± 0.5 °C until they show a painful sensation by licking their paws or jumping and the time for these sensations to occur is recorded. This reading is considered the basal value (B). The maximum time limit the mice are allowed to remain on the hot plate in absence of any painful response is 40 seconds in order to prevent skin damage. This period is called the cut-off time (PC).
(§11) Fifteen minuts after the administration of the substance to be tested, the mice are again placed on the hot plate and the afore described procedure is repeated. This period is called the post-treatment reading (PT).
(§12) The degree of analgesia is calculated from the formula : %MPEof Analgesia = (PT−B)/(PC−B) × 100 [formula] MPE = Maximum possible effect.
(§13) Sedation and ataxia is determined according to the method described in Desmet L. K. C. et al. "Anticonvulsive properties of Cinarizine and Flunarizine in Rats and Mice", Arzneim. -Forsch. (Frug Res) 25, 9, 1975. The respective description is hereby incorporated by reference and forms part of the present disclosure.
The chosen scoring system is • 0: no ataxia; • 1: doubful; • 2: obvious calmness and quiet; • 3 pronounced ataxia; • prior to as well as after treatment.
The percentage of sedation is determined according to the formula: %of sedation = arithmetic mean/3 × 100 [formula] […]

The subject of assay [3] is cannabinoid receptors. In words: Mouse tetrad model, antagonistic effect against Win 55212-2. Format: in vivo, Male NMRI mice. As to conditions: 5 mg/kg i.v. prior to Win 55212-2 in a dose of 1,25mg/kg i.v.
Excerpt: as §3, §4, §5, §6, §7, §8
In order to determine the antagonistic activity the identical procedure is used as for the determination of the agonistic effects, but with the difference that the substance to be evaluated for its antagonistic activity is injectected 5 minutes before the intravenous injection of 1.25 mg/kg Win-55,212 a known cannabinoid-receptor agonist.
as §9, §10, §11, §12, §13
The chosen scoring system is • 0: no ataxia; • 1: doubful; • 2: obvious calmness and quiet; • 3 pronounced ataxia; • prior to as well as after treatment. […]

Assay [4] in a line: In-vivo testing for regulation of triglycerides in blood, diet-induced obese mice (study VI). As to conditions: high fat diet, 30 mg/kg/day p.o., day 28 after beginning of the treatment; p<0.005 vs. vehicle. The procedure: In a second set of experiments carried out similar to the tests shown above the TG (triglyceride) levels of diet-induced obese mice in blood were determined. Mice receiving a high fat diet were - after a feeding period of […] - either treated p.o. with vehicle (0,5 % HPMC) or with the compound according to example 0 (30 mg/kg/day p.o.). TG levels in blood were determined on day 28 after beginning of the treatment.

Assay [5] is described as follows: In-vivo testing for regulation of triglycerides in blood, obese mice on high fat diet (study V). As to conditions: 30 mg/kg/day po, 14 days. On the set-up: species or system male mice B6 Lep ob/ob. The source says: The study was done using six weeks old male mice B6 Lep ob/ob, obtained from Charles River (France). Mice were divided in 3 groups : I (control), II (vehicle), III (example 0).
The animals of the group I received the standard diet (D-12450B, Research Diets, NJ, USA).
The animals of the groups II and III were fed with a High Fat Diet (D-12492, Research Diets, NJ, USA), in both cases for 7 weeks (References 1 and 2).
The animals of the groups III were fed with a High Fat Diet (D-12492, Research Diets, NJ, USA), in both cases for 7 weeks (References 1 and 2).
At the end of the feeding period of 7 weeks, it was started the treatment period (14 days): Group II mice received the vehicle (10 ml/kg/day, po, of the aqueous solution of acacia gum, 5% W/V). Group III was administered with 30 mg/kg/day, po, of the inventive compound 5-(4-chlorophenyl)-1-(2,4-dichlorophenyl)-4,5-dihydro-pyrazole-3-carboxylic acid according to Example 0. Group I didn't received any treatment. The three groups of mice had the same diet than in the previous period.
At the end of the 14 days period of treatment, the blood levels of triglicerides of the animals were determined. […]

Assay [6] has as its target T2, transfected human CB1 receptors (Homo sapiens, UniProt P21554).
T2 construct: purchased Receptor Biology, Inc
Kind of assay: In-vitro determination of affinity to CB1 receptor (radioligand [3H]-CP55940). Format: binding. On the procedure: as §1, §2

T1 sequence (P34972 whole entry): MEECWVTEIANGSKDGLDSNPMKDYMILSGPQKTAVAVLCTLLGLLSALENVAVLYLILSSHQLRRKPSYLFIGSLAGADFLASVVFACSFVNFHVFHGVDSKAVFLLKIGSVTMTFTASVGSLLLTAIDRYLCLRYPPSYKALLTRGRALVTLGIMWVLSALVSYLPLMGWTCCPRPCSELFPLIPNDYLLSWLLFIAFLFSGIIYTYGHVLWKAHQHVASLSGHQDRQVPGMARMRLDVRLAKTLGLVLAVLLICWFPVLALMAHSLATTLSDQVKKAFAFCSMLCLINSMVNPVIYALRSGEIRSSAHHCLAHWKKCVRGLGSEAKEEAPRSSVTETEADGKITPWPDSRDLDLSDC
T2 sequence (P21554 whole entry): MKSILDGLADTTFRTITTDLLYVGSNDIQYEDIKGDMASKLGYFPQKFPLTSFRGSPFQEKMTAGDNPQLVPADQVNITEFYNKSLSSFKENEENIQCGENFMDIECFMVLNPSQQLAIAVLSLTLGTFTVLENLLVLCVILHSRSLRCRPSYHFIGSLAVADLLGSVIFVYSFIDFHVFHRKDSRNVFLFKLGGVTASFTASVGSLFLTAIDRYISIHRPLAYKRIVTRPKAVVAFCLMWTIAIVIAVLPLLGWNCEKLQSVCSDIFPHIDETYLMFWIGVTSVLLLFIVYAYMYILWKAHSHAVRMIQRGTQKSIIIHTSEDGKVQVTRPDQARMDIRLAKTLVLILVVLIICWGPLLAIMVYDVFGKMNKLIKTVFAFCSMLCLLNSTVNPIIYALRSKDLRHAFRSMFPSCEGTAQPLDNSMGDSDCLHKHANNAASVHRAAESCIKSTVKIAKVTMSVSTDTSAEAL

Consider `O=C(C1=NN(c2ccc(Cl)cc2Cl)C(c2ccc(Cl)cc2)C1)N1CCCCC1` (stereo not shown) [Example 5, [5-(4-Chloro-phenyl)-1-(2,4-dichloro-phenyl)-4,5-dihydro-1H-pyrazol-3-yl]-piperidin-1-yl-methanone], for which the inhibitory constant (Ki) – broadly, the dissociation constant of the complex between target and ligand, obtained from inhibition or displacement – in assay [1] is roughly 1000 nM. Besides, in the assay with cannabinoid receptors [2], the “Agonistic effect A: Hot-Plate test” value was 0, the “Agonistic effect B: Hypothermia” value is listed as 50, the “Agonistic effect C: Catalepsy” value stood at 0 and the “Agonistic effect D: Sedation” value is 0. Also, in the assay on cannabinoid receptors [3], the “Antagonistic Effect A: Hot-Plate test” value is listed as 50, the “Antagonistic Effect B: Hypothermia” value was determined as 40, the “Antagonistic Effect C: Catalepsy” value is listed as 20 and the “Antagonistic Effect D: Sedation” value was 20.

Take `O=C(O)C1=NN(c2ccc(Cl)cc2Cl)C(c2ccc(Cl)cc2)C1` (stereo not shown) [Example 0, 5-(4-chlorophenyl)-1-(2,4-dichlorophenyl)-4,5-dihydro-pyrazole-3-carboxylic acid]: in assay [4], the “TG (triglyceride) levels” value amounted to 0.80 ± 0.07 mmol/L. Besides, the “Triglicerides, whole blood levels (mg/dl)” value in assay [5] (N.S. compared with Group I) is listed as 67.5 (N.S.) mg/dl. In assay [5] (triglicerides relative to Group I (standard diet = 100%)), this molecule gave a Relative levels of 110.6%.

As to `O=C(NN1CCCCC1)C1=NN(c2ccc(Cl)cc2Cl)C(c2ccc(Cl)cc2)C1` (stereo not shown) [Example 1, N-piperidinyl-5-(4-chlorophenyl)-1-(2,4-dichlorophenyl)-4,5-dihydro-1H-pyrazole-3-carboxamide], in assay [6], the inhibition constant Ki is less than 25 nM. Moreover, the inhibition constant (Ki) in assay [1] is greater than 1000 nM. For the same molecule, in the assay on cannabinoid receptors [2], the “Agonistic effect A: Hot-Plate test” value worked out at 0, the “Agonistic effect B: Hypothermia” value is given as 0, the “Agonistic effect C: Catalepsy” value was 0 and the “Agonistic effect D: Sedation” value stood at 0. Further, in the assay on cannabinoid receptors [3], the “Antagonistic Effect A: Hot-Plate test” value came to 74, the “Antagonistic Effect B: Hypothermia” value amounted to 100, the “Antagonistic Effect C: Catalepsy” value is 100 and the “Antagonistic Effect D: Sedation” value is given as 100.

For the origin of these results see patent EP1743642A1 (priority 2005, dated 2007).
